Test results reported in US9556145B2, “2-pyridyloxy-4-ester orexin receptor antagonists” (MERCK SHARP & DOHME CORP., priority 2012, dated 2017).

Legend:
[1] = biological target: human orexin-2 receptor (Homo sapiens (Human), UniProt O43614); test: FLIPR Ca2+ Flux Assay, orexin-2 receptor; assay type: cell-based; conditions: CHO cells expressing the receptor; agonist 70 pM Ala-6,12 orexin-A; read-out: hOX2R FLIPR IC50
Procedure: The utility of the compounds in accordance with the present invention as orexin receptor OX1R and/or OX2R antagonists may be readily determined without undue experimentation by methodology well known in the art, including the “FLIPR Ca^2+ Flux Assay” (Okumura et al., Biochem. Biophys. Res. Comm. 280:976-981, 2001). In a typical experiment the OX1 and OX2 receptor antagonistic activity of the compounds of the present invention was determined in accordance with the following experimental method. For intracellular calcium measurements, Chinese hamster ovary (CHO) cells expressing the rat orexin-1 receptor or the human orexin-2 receptor, are grown in Iscove's modified DMEM containing 2 mM L-glutamine, […], 1% hypoxanthine-thymidine supplement, 100 U/ml penicillin, 100 µg/ml streptomycin and 10% heat-inactivated fetal calf serum (FCS). The cells are seeded at 20,000 cells/well into Becton-Dickinson black 384-well clear bottom sterile plates coated with poly-D-lysine. All reagents were from GIBCO-Invitrogen Corp. The seeded plates are incubated overnight at 37° C. and 5% CO2. Ala-6,12 human orexin-A as the agonist is prepared as a 1 mM stock solution in 1% bovine serum albumin (BSA) and diluted in assay buffer (HBSS containing 20 mM HEPES, 0.1% BSA and 2.5 mM probenecid, pH7.4) for use in the assay at a final concentration of 70 pM. Test compounds are prepared as 10 mM stock solution in DMSO, then diluted in 384-well plates, first in DMSO, then assay buffer. On the day of the assay, cells are washed 3 times with 100 μl assay buffer and then incubated for 60 min (37° C., 5% CO2) in 60 μl assay buffer containing 1 μM Fluo-4AM ester, 0.02% pluronic acid, and 1% BSA. The dye loading solution is then aspirated and cells are washed 3 times with 100 μl assay buffer. 30 μl of that same buffer is left in each well. Within the Fluorescent Imaging Plate Reader (FLIPR, Molecular Devices), test compounds are added to the plate in a volume of 25 μl, incubated for 5 min and finally 25 μl of agonist is added. Fluorescence is measured for each well at 1 second intervals for 5 minutes and the height of each fluorescence peak is compared to the height of the fluorescence peak induced by 70 pM Ala-6,12 orexin-A with buffer in place of antagonist. For each antagonist, IC50 value (the concentration of compound needed to inhibit 50% of the agonist response) is determined. Alternatively, compound potency can be assessed by a radioligand binding assay (described in Bergman et. al. Bioorg. Med. Chem. Lett. 2008, 18, 1425-1430) in which the inhibition constant (Ki) is determined in membranes prepared from CHO cells expressing either the OX1 or OX2 receptor. The intrinsic orexin receptor antagonist activity of a compound which may be used in the present invention may be determined by these assays.

[2] = biological target: hOX1R (Homo sapiens, UniProt O43613); test: FLIPR Ca2+ Flux Assay, orexin-1 receptor; assay type: cell-based; conditions: CHO cells expressing the receptor; agonist 70 pM Ala-6,12 orexin-A

Sequence of human orexin-2 receptor (O43614 whole entry): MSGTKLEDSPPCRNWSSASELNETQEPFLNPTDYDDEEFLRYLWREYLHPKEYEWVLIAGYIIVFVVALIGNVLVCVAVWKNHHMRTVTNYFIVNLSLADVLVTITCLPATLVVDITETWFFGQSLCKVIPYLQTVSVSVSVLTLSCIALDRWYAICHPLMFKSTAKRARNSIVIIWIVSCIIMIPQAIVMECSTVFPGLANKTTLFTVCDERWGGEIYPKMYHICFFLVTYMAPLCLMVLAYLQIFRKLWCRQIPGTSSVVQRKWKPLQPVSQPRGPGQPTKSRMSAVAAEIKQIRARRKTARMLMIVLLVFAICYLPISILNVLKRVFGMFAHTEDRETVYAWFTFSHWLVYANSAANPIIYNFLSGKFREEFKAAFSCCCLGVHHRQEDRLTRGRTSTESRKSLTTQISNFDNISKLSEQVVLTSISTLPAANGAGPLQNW

Structure (SMILES): COC(=O)c1cc(O[C@@H]2CC[C@@H](C)N(C(=O)c3ccccc3-n3nccn3)C2)ncc1Br [Example 4, methyl 5-bromo-2-{[(3R,6R)-6-methyl-1-{[2-(2H-1,2,3-triazol-2-yl)phenyl]carbon-yl}piperidin-3-yl]oxy}pyridine-4-carboxylate]
- IC50 [1]: 60 nM
- IC50 [2]: 28.9 nM

Structure (SMILES): COC(=O)c1ccnc(O[C@@H]2CC[C@@H](C)N(C(=O)c3ccc(OC)nc3-n3nccn3)C2)c1 [Example 9, methyl 2-{[(3R,6R)-1-{[6-methoxy-2-(2H-1,2,3-triazol-2-yl)pyridin-3-yl]carbonyl}-6-methylpiperidin-3-yl]oxy}pyridine-4-carboxylate]
- IC50 [1]: 406 nM
- IC50 [2]: 10000 nM

Structure (SMILES): COC(=O)c1cc(O[C@@H]2CC[C@@H](C)N(C(=O)c3ccccc3-n3nccn3)C2)ncc1OC [Example 10, Methyl 5-methoxy-2-{[(3R,6R)-6-methyl-1-{[2-(2H-1,2,3-triazol-2-yl)phenyl]carbonyl}piperidin-3-yl]oxy}pyridine-4-carboxylate]
- IC50 [1]: 96 nM
- IC50 [2]: 597 nM

Structure (SMILES): COC(=O)c1cc(O[C@@H]2CC[C@@H](C)N(C(=O)c3ccccc3-n3nccn3)C2)ncc1C [Example 11, Methyl 5-methyl-2-{[(3R,6R)-6-methyl-1-{[2-(2H-1,2,3-triazol-2-yl)phenyl]carbonyl}piperidin-3-yl]oxy}pyridine-4-carboxylate]
- IC50 [1]: 11 nM
- IC50 [2]: 31 nM

Structure (SMILES): COC(=O)c1ccnc(O[C@@H]2CC[C@@H](C)N(C(=O)c3ccccc3-n3nccn3)C2)c1Cl [Example 5, Methyl 3-chloro-2-{[(3R,6R)-6-methyl-1-{[2-(2H-1,2,3-triazol-2-yl)phenyl]carbonyl}piperidin-3-yl]oxy}pyridine-4-carboxylate]
- IC50 [1]: 11 nM
- IC50 [2]: 953 nM

Structure (SMILES): COC(=O)c1ccnc(O[C@@H]2CC[C@@H](C)N(C(=O)c3ccc(OC)nc3-c3ncccn3)C2)c1 [Example 12, Methyl 2-({(3R,6R)-1-[(6-methoxy-2-pyrimidin-2-ylpyridin-3-yl)carbonyl]-6-methylpiperidin-3-yl}oxy)pyridine-4-carboxylate]
- IC50 [1]: 2110 nM
- IC50 [2]: 10000 nM

Structure (SMILES): COC(=O)c1ccnc(O[C@@H]2CC[C@@H](C)N(C(=O)c3ccccc3-n3nccn3)C2)c1 [Example 1, Methyl 2-{[(3R,6R)-6-methyl-1-{[2-(2H-1,2,3-triazol-2-yl)phenyl]carbonyl}piperidin-3-yl]oxy}pyridine-4-carboxylate]
- IC50 [1]: 26 nM
- IC50 [2]: 1400 nM

Structure (SMILES): COC(=O)c1cc(O[C@@H]2CC[C@@H](C)N(C(=O)c3ccccc3-n3nccn3)C2)ncc1C(F)(F)F [Example 3, methyl 2-{[(3R,6R)-6-methyl-1-{[2-(2H-1,2,3-triazol-2-yl)phenyl]-carbonyl}piperidin-3-yl]oxy}-5-(trifluoro-methyl)pyridine-4-carboxylate]
- IC50 [1]: 57 nM
- IC50 [2]: 28 nM

Structure (SMILES): COC(=O)c1ccnc(O[C@@H]2CC[C@@H](C)N(C(=O)c3ccccc3-n3nccn3)C2)c1C(=O)OC [Example 6, dimethyl 2-{[(3R,6R)-6-methyl-1-{[2-(2H-1,2,3-triazol-2-yl)phenyl]-carbonyl}-piperidin-3-yl]oxy}pyridine-3,4-dicarboxylate]
- IC50 [1]: 30.8 nM
- IC50 [2]: 526 nM

Structure (SMILES): COC(=O)c1ccnc(O[C@@H]2CC[C@@H](C)N(C(=O)c3ccccc3-n3nccn3)C2)c1F [Example 8, methyl 3-fluoro-2-{[(3R,6R)-6-methyl-1-{[2-(2H-1,2,3-triazol-2-yl)phenyl]carbonyl}piperidin-3-yl]oxy}pyridine-4-carboxylate]
- IC50 [1]: 24.9 nM
- IC50 [2]: 1690 nM

Structure (SMILES): COC(=O)c1cc(C)nc(O[C@@H]2CC[C@@H](C)N(C(=O)c3ccccc3-n3nccn3)C2)c1 [Example 7, methyl 2-methyl-6-{[(3R,6R)-6-methyl-1-{[2-(2H-1,2,3-triazol-2-yl)phenyl]carbonyl}piperidin-3-yl]oxy}pyridine-4-carboxylate]
- IC50 [1]: 82.6 nM
- IC50 [2]: 1470 nM
